Data set [1] is described as follows: Pharmacokinetics after intravenous bolus injection. The class given is in vivo, rat. As to the method: Adult male Wistar rats weighing between 180 and 240 g were used to determine the pharmacokinetics of GPE and G2MePE. To facilitate intravenous bolus injections and blood sampling, all rats were surgically implanted with an indwelling jugular venous cannula under halothane anesthesia three days before the experiment. Groups of six rats were given a single intravenous bolus injection of either 30 mg/kg GPE or 10 mg/kg G2MePE dissolved in 0.1M succinate buffer (pH 6.5). Blood samples (about 220 μl each) were collected into heparinized tubes containing Sigma protease inhibitor cocktail for mammalian tissues at 10 and 0 min before injection of either GPE or G2MePE, and 1, 2, 4, 8, 16, 32, 64 and 128 min after injection of either GPE or G2MePE. The samples were centrifuged at 3000 g for 15 min at 4° C. and the plasma removed and stored at −80° C. until extraction and assay by either radioimmunoassay (“RIA”) or reverse phase HPLC. The RIA and HPLC methods used were conventional.
The k and half-life (t1/2) were calculated from the slope of the linear regression line in the elimination phase of the semi-logarithmic plot of plasma concentration versus time as: Log C=−kt/2.3+log C0. Results were expressed as mean±standard error.

Data set [2] has as its system hippocampal CA1 neurons of mecp2 null mutant mice. Put plainly: Dendritic arborization and spine analysis, Golgi staining (Example 9). The class given is in vivo, mouse. Here is the method: We assess the effects of G-2-MePE treatment on dendrites. Transgenic mecp2 knockout mice (n=15 to 20) were administered G-2-MePE intraperitoneally at a dose of 20 mg/kg once daily. Following sacrifice dendritic spine density, spine length and aborization were examined after Golgi staining after nine weeks, as per the Table 1 below:
Dendritic length was assessed by distance from the soma of representative hippocampal CA1 neurons from 9 week old male mecp2 null mutant mice treated with either saline (3 neurons analysed from 3 separate mice, n=9) or G-2-MePE (20 mg/kg i.p. 1/day, from week 4; 3 neurons analysed from 3 separate mice, n=9).

A further data set has as its system Akt. Put plainly: Western blot of phosphorylated Akt. The class given is in vivo, mouse. The following applies: fmr1 KO; 100 mg/kg 4 weeks; p<0.05. Here is the method: Phosphorylated Extracellular Signal-Regulated Protein Kinase (ERK) and Protein Kinase B (Akt) expression was measured by Western blot analysis in lymphocytes from fmr1 KO and wild-type animals administered ether vehicle or G-2MePE (100 mg/kg, i.p.; 28 days) treated in the behavior experiments as previously described (Lopez Verrilli et al. 2009). ERK is a classical MAPK signal transduction protein, responsible for growth factor transduction, proliferation, cytokine response to stress and apoptosis. […]
To conduct the western blots, antibodies were used against Akt ( 1/1000) (Cell Signaling), ERK1/2 ( 1/2000) (Cell Signaling), antiphospho-Akt ( 1/1000) and antiphospho-ERK ( 1/2000) (Cell Signaling). Total Akt and ERK 1/2 protein content (phosphorylated) were evaluated by blotting membranes with antiphospho-Akt ( 1/1000) and antiphospho-ERK antibodies ( 1/2000) (Cell Signaling). Akt or ERK phosphorylation was normalized to protein content in the same sample and expressed as % of change with respect to basal conditions, considering basal levels as 100%. Protein loading was evaluated by stripping and re-blotting membranes with b-actin antibody ( 1/1000) (Sigma Chemical Co.). […]
For orientation: A western blot detects proteins with antibodies after separation by electrophoresis.

The subject of another data set is MeCP2-/y mice. Nature of the data set: Heart rate measurements (Example 10). The class given is in vivo, mouse. Conditions: 8 weeks old, treated from P15. Here is the method: Real time cardiac pulse rate is measured using a tail clip sensor (Mouse OX Oximeter—Oakmont, Pa.). Mice are not anesthetized but physically restrained in a fitted open plastic tube. Prior to the recording session the tube is placed overnight in the cages housing the experimental animals to allow habituation. Body temperature is maintained at ˜82-84° F. throughout the recording time. We record 3 trials of 15 minutes for each mouse, mice are 8 weeks old and treated with vehicle or G-2-MePE from P15.

A further data set concerns central nervous system. Conditions: after oral administration; cited from earlier work.

Where a SMILES comes first, the peptide text is derived from it.

Usually half-life stands for the time in which the quantity being followed falls by half. Low values mean rapid decline, high ones slow decline. One may read the clearance as the volume of plasma or blood freed of the substance per unit of time. For `C[C@@]1(C(=O)N[C@@H](CCC(=O)O)C(=O)O)CCCN1C(=O)CN` [Example G-2-MePE, Glycyl-L-2-methylprolyl-L-glutamic acid] (HELM PEPTIDE1{G.[C[C@@]1(C(=O)[*:2])CCCN1[*:1]].E}$$$$V2.0), the “maximal plasma concentration relative to GPE” value in data set [1] (G-2-MePE 10 mg/kg vs GPE 30 mg/kg i.v.) is on record as “about 4.8 times”. In addition, the “t1/2 relative to GPE” value in data set [1] (i.v.) was “over 4 times”. Moreover, the half-life in data set [1] (male, Wistar, rat, plasma, iv, single i.v. bolus, GPE 30 mg/kg, G-2-MePE 10 mg/kg) stood at 20.7 ± 0.35 min. In data set [1] (male, Wistar, rat, plasma, iv, single i.v. bolus, GPE 30 mg/kg, G-2-MePE 10 mg/kg, read-out: estimated clearance from plasma (converted)), the clearance is 0.502 mL/min. Further, the first order rate constant in data set [1] (single i.v. bolus, GPE 30 mg/kg, G-2-MePE 10 mg/kg) turned out to be 0.033 ± 0.001 min⁻¹. For the same molecule, the peak plasma concentration in data set [1] (single i.v. bolus, GPE 30 mg/kg, G-2-MePE 10 mg/kg, mean±standard error) turned out to be 191 ± 16.1 µg/mL. Besides, in data set [2] (20 mg/kg i.p. 1/day from week 4, vs saline), the “dendritic length by distance from the soma” value is given as “produced longer dendrites”. Also, the “dendritic arborization and dendritic spine length” value in data set [2] (20 mg/kg i.p. once daily, 9 week old mice) is “improved dendritic arborization and increased dendritic spine length”. For the same molecule, in the data set on Akt, the “Akt phosphorylation compared to total Akt” value is given as “significant reduction in Akt phosphorylation”. The “occurrence of irregular, lower heart rate” value in the data set on MeCP2-/y mice is listed as “significantly reduced”. In addition, the “activity in the central nervous system” value in the data set on central nervous system is given as “active in the central nervous system”.

The record behind these values is patent US20150224164A1, “TREATMENT OF AUTISM SPECTRUM DISORDERS USING GLYCYL-L-2-METHYLPROLYL-L-GLUMATIC ACID” (Neuren Pharmaceuticals Limited, priority 2013, published 2015).
